In ChEMBL document CHEMBL1152948, “Antimycobacterial activity of new 3,5-disubstituted 1,3,4-oxadiazol-2(3H)-one derivatives. Molecular modeling investigations” (2009):
≈ marks a conversion by molar mass, not a printed value. Calls of active or inactive are those of the source. The rule behind the calls is not given here.

Test system: Mycobacterium tuberculosis
Test: Antitubercular activity against Mycobacterium tuberculosis H37Rv by microdilution resazurin assay
Type: functional

Row | Compound | MIC [µg/mL]
1 | Cc1ccc(CN(C)Cn2nc(-c3ccncc3)oc2=O)cc1 | 4 (≈ 12.9 µM)
2 | O=c1[nH]nc(-c2ccccc2)o1 | 32 (≈ 197 µM)
3 | CC1CCCCN1Cn1nc(-c2cccnc2)oc1=O (configuration not stated) | 32 (≈ 117 µM)
4 | CN(Cc1ccccc1F)Cn1nc(-c2ccncc2)oc1=O | 4 (≈ 12.7 µM)
5 | O=c1oc(-c2ccccn2)nn1CN1CCCCC1 | 4 (≈ 15.4 µM)
6 | CN(Cc1cccc(Br)c1)Cn1nc(-c2ccncc2)oc1=O | 4 (≈ 10.7 µM)
7 | CC1CCN(Cn2nc(-c3ccccc3)oc2=O)CC1 | 32 (≈ 117 µM)
8 | CN(Cc1ccc(Cl)cc1)Cn1nc(-c2ccncc2)oc1=O | 8 (≈ 24.2 µM)
9 | CN(Cc1cccc(Cl)c1)Cn1nc(-c2ccncc2)oc1=O | 8 (≈ 24.2 µM)
10 | O=c1[nH]nc(-c2ccccn2)o1 | 4 (≈ 24.5 µM)
11 | O=c1[nH]nc(-c2cnccn2)o1 | > 64
12 | O=c1oc(-c2ccccc2)nn1CN1CCCCC1 | 32 (≈ 123 µM)
13 | O=c1[nH]nc(-c2ccncc2)o1 [NEOVADRINE] | 4 (≈ 24.5 µM)
14 | CO[C@H]1/C=C/O[C@@]2(C)Oc3c(C)c(O)c4c(O)c(c(/C=N/N5CCN(C)CC5)c(O)c4c3C2=O)NC(=O)/C(C)=C\C=C\[C@H](C)[C@H](O)[C@@H](C)[C@@H](O)[C@@H](C)[C@H](OC(C)=O)[C@@H]1C [RIFAMPIN] | 1 (≈ 1.22 µM)
15 | CN(Cc1ccc(Br)cc1)Cn1nc(-c2ccncc2)oc1=O | 4 (≈ 10.7 µM)
16 | CC1CCN(Cn2nc(-c3ccccn3)oc2=O)CC1 | 4 (≈ 14.6 µM)
17 | CN(Cc1ccc(F)cc1)Cn1nc(-c2ccncc2)oc1=O | 4 (≈ 12.7 µM)
18 | NNC(=O)c1ccncc1 [ISONIAZID] | 0.5 (≈ 3.65 µM)

Row | Compound | MIC [µg/mL]
19 | CN(Cc1cccc(F)c1)Cn1nc(-c2ccncc2)oc1=O | 8 (≈ 25.5 µM)
20 | CN(Cc1cccc2ccccc12)Cn1nc(-c2ccncc2)oc1=O | 8 (≈ 23.1 µM)
21 | CC1CCCN(Cn2nc(-c3cnccn3)oc2=O)C1 (configuration not stated) | > 64
22 | CC1CCN(Cn2nc(-c3cnccn3)oc2=O)CC1 | > 64
23 | CN(Cc1ccccc1Cl)Cn1nc(-c2ccncc2)oc1=O | 8 (≈ 24.2 µM)
24 | CC1CCCN(Cn2nc(-c3ccccn3)oc2=O)C1 (configuration not stated) | 4 (≈ 14.6 µM)
25 | CC1CCCN(Cn2nc(-c3ccccc3)oc2=O)C1 (configuration not stated) | 32 (≈ 117 µM)
26 | CC1CCCCN1Cn1nc(-c2ccccn2)oc1=O (configuration not stated) | 4 (≈ 14.6 µM)
27 | O=c1[nH]nc(-c2cccnc2)o1 | 32 (≈ 196 µM)
28 | CC1CCCCN1Cn1nc(-c2ccccc2)oc1=O (configuration not stated) | 32 (≈ 117 µM)
29 | O=c1oc(-c2cnccn2)nn1CN1CCCCC1 | > 64
30 | CC1CCCN(Cn2nc(-c3cccnc3)oc2=O)C1 (configuration not stated) | 32 (≈ 117 µM)
31 | CN(Cc1ccccc1)Cn1nc(-c2ccncc2)oc1=O | 8 (≈ 27 µM)
32 | O=c1oc(-c2cccnc2)nn1CN1CCCCC1 | 32 (≈ 123 µM)
33 | CN(Cc1ccc(Cl)cc1Cl)Cn1nc(-c2ccncc2)oc1=O | 8 (≈ 21.9 µM)
34 | CN(Cc1ccccc1Br)Cn1nc(-c2ccncc2)oc1=O | 8 (≈ 21.3 µM)
35 | CC1CCN(Cn2nc(-c3cccnc3)oc2=O)CC1 | > 64

Test system: Mycobacterium tuberculosis
Test: Antitubercular activity against Mycobacterium tuberculosis H37Rv at 5 ug/disk by microdilution resazurin assay
Type: functional, organism-based

Row | Compound | Activity
36 | NNC(=O)c1ccncc1 [ISONIAZID] | Active

Test system: Mycobacterium tuberculosis
Test: Antitubercular activity against Mycobacterium tuberculosis H37Rv at 30 ug/disk by microdilution resazurin assay
Type: functional, organism-based

Row | Compound | Activity
37 | CO[C@H]1/C=C/O[C@@]2(C)Oc3c(C)c(O)c4c(O)c(c(/C=N/N5CCN(C)CC5)c(O)c4c3C2=O)NC(=O)/C(C)=C\C=C\[C@H](C)[C@H](O)[C@@H](C)[C@@H](O)[C@@H](C)[C@H](OC(C)=O)[C@@H]1C [RIFAMPIN] | Active
